Columns and labels:
[1] = biological target: 4-aminobutyrate aminotransferase, mitochondrial (Homo sapiens, UniProt P80404); experiment: Inhibitory activity against GABAT
[2] = biological target: T1, Succinate-semialdehyde dehydrogenase, mitochondrial (Homo sapiens, UniProt P51649); experiment: Inhibitory activity against SSADH
T1 sequence (P51649 whole entry): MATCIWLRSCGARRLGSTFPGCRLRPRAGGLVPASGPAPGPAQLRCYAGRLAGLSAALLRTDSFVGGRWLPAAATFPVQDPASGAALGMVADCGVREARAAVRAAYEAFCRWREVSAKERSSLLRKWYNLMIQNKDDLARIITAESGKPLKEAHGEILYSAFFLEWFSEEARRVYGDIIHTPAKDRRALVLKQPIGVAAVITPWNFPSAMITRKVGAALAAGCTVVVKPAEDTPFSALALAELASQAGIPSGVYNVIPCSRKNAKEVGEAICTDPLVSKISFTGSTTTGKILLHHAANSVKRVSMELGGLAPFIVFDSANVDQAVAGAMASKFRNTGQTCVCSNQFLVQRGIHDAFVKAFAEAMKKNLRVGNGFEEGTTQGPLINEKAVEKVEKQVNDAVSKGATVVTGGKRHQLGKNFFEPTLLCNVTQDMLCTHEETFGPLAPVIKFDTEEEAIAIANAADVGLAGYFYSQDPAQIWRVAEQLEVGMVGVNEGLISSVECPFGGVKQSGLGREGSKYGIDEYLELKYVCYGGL

4-aminobutyrate aminotransferase, mitochondrial, sequence (P80404 whole entry): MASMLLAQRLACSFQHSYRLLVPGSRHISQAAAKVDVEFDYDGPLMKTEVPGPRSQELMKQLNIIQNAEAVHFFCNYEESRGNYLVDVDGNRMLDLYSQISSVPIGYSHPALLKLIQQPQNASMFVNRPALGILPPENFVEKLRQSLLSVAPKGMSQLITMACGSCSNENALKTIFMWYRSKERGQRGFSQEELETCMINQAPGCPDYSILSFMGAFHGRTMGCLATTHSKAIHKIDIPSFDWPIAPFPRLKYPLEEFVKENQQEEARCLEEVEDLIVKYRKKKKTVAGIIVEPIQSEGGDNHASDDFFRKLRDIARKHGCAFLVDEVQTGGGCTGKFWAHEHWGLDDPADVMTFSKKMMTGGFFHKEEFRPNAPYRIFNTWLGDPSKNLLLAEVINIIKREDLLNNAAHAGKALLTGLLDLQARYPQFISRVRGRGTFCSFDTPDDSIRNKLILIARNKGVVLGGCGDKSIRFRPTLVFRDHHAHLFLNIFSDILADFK

Compound | IC50 [1] | IC50 [2]
COc1cc(CN=O)ccc1O [4-hydroxy-3-methoxybenzaldehyde oxime] | > 1000 µM | > 1000 µM
O=NCc1ccc(O)cc1 [4-hydroxybenzaldehyde oxime] | > 1000 µM | > 1000 µM
